Experimental data taken from publication PMC4773758, “Small Molecule Inhibited Parathyroid Hormone Mediated cAMP Response by N–Terminal Peptide Binding” (Scientific Reports, 2016).

Experiments:
PTH1R in HEK 293 cells = experiment: cAMP assay, compound pre-incubated with cells followed by PTH(1–84); assay type: cell-based, Human; conditions: compound pre-incubated with the cells, then PTH(1–84)
Protocol: (§1) The cAMP generation was also analyzed to see the effect of the Zn complex on the receptor itself. Here, the Zn complex was pre-incubated with the cells followed by addition of PTH(1–84). […] In another control experiment cAMP generation was also studied by incubating the 9-anthracenemethanol with the peptide (Figure S9) or directly with the cells (grey bars in Figure S7). […] Additionally, inhibition of cAMP response or cell toxicity was also not observed up to 100 μM of Zn–perchlorate (Figure S10).
HEK 293 cells stably expressing hPTH1R were used for the cAMP accumulation assay following the previously reported procedure. The reaction was carried out at 37 °C and fluorescence measurements were taken using a VICTOR X4 2030 plate reader (PerkinElmer Life and Analytical Sciences). A fixed amount of 0.01 μM peptide hormones and 4 × 10^3 cells per well were used to monitor the cAMP response. The Zn complex or 9-anthracenemethanol was diluted form 0.1 μM to 100 μM and incubated for 15 minutes with the peptide hormone before addition of HEK 293 cells. […] The maximum cAMP response were calculated as a percentage of the maximal response of PTH(1–34) or PTH(1–84). The effect of Zn complex or 9-anthracenemethanol on receptor was evaluated by incubating these with the cells for 15 minutes followed by washing with buffer. […]

PTH(1–84) [1] = biological target: T1, PTH(1–84) (Homo sapiens, UniProt P01270); experiment: NMR 1H–15N HSQC titration with 15N–PTH(1–84); assay type: binding; conditions: pH 5.3, 25 °C
T1 construct: SUMO (N, cleaved yes); His-tag (C); made in house; host or cells: E. coli BL21 codon+
T1 sequence (P01270 32-115): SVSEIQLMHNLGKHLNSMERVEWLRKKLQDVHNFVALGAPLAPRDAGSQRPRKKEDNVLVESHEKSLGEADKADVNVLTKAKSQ
Excerpt: Preferential binding at residue-level resolution was further investigated by choosing full length ^15N PTH(1–84) to see whether or not the C–terminal region is involved in the Zn complex interaction. […] These NMR spectra indicate that the N–terminal domain of PTH (1–84) binds to the Zn complex whereas the C–terminus part remains solvent exposed and flexible enough to result in observable resonances. […] Histidine 63 is the only exception in the C–terminal part of PTH(1–84) sensing complex formation.
The spectra were recorded at the concentration of 50 μM of peptide hormones. Subsequently, titration was carried out with the addition of 0.5 μl of 10 mM Zn complex until there was no further change in NMR intensity observed. The spectrum corresponding to the 1:4 complex formations was used for the analysis. For the 9-anthracenemethanol titration experiment 20 μM of PTH was used. A titration was carried out and the 1:4 complex of PTH:9-anthracenemethanol was analyzed in detail. The spectra were corrected for the dilution factor. The previously determined NMR assignments of PTH resonances were used[24][63][64]. The spectra were recorded in the 10 mM BisTris, 300 mM Na2SO4, 0.02% NaN3, pH 5.3, with a Bruker 800 MHz Avance III spectrometer equipped with a CP–TCI cryoprobe at 25 °C. Spectra were processed using the programs NMRPipe and NMR Draw.

[2] = test system: PTH(1–84) induced cAMP in HEK 293 cells expressing hPTH1R; experiment: cAMP accumulation assay, compound pre-incubated with PTH(1–84); assay type: cell-based, Human
Excerpt: NMR spectroscopy identified that the Zn complex interacts with the N–terminal part of the peptide hormone. The binding region from residues 1–37 of PTH(84) is important for recognition, interaction with the extracellular loops and trans–membrane helices of the receptor and bringing about activation of the later. There are two principal signal transduction pathways involving the G protein–coupled receptors: the cAMP signal pathway and the phosphatidylinositol signal pathway. Parathyroid hormone is involved in the cAMP pathway for its biological regulation. Because binding of the Zn complex was at the N–terminal part of PTH, it is interesting to investigate the cAMP response towards its receptor in the presence of the Zn complex. Therefore PTH(1–34) and PTH(1–84) induced cAMP accumulation was measured in stable HEK 293 cell lines expressing recombinant PTH1R[33]. A cAMP generation assay was carried out in a Zn complex concentration dependent manner, keeping the cells and peptide hormone concentrations constant. PTH response without Zn complex was considered as 100% cAMP response. The peptide hormones were exposed to Zn complex for 15 minutes to allow for complex formation and subsequently cAMP generation was studied.
HEK 293 cells stably expressing hPTH1R were used for the cAMP accumulation assay following the previously reported procedure. The reaction was carried out at 37 °C and fluorescence measurements were taken using a VICTOR X4 2030 plate reader (PerkinElmer Life and Analytical Sciences). A fixed amount of 0.01 μM peptide hormones and 4 × 10^3 cells per well were used to monitor the cAMP response. The Zn complex or 9-anthracenemethanol was diluted form 0.1 μM to 100 μM and incubated for 15 minutes with the peptide hormone before addition of HEK 293 cells. All experiments were performed in triplicate and repeated independently three times. The maximum cAMP response were calculated as a percentage of the maximal response of PTH(1–34) or PTH(1–84). The effect of Zn complex or 9-anthracenemethanol on receptor was evaluated by incubating these with the cells for 15 minutes followed by washing with buffer. These treated cells were added to the reaction mixture containing untreated PTH(1–84) as described above.

PTH(1–84) [3] = biological target: T1, PTH(1–84); experiment: Fluorescence quenching titration with PTH(1–84); assay type: binding
Protocol: The natural form of parathyroid hormone comprises 84 residues, however, PTH(1–34) is sufficient for receptor activation. PTH contains one tryptophan residue at position 23. Thus it can be used as a highly sensitive fluorescent probe for the analysis of ligand binding by fluorescence spectroscopy. PTH is composed of structured sections mainly from positions 1–37, whereas the C–terminal part is largely unstructured. […] In order to establish the binding a titration experiment was carried out where the PTH(1–34) concentration was kept constant and the concentration of the Zn complex was varied.
The fluorescence quenching behavior was analyzed according to the equation given in the experimental section. […] In order to evaluate the interaction at the C–terminal part of the PTH and its role in binding, full length PTH(1–84) was taken and its binding was established.
Fluorescence titrations were carried out on a JASCO FP6500. The samples were excited at 280 nm wavelength and the emission spectra were recorded in the range between 290 nm to 450 nm. Experiments were carried out in 10 mM BisTris, 300 mM Na2SO4, 0.02% NaN3, pH 7.2 using a 1 cm path length quartz cell. The concentration of PTH(1–34), PTH(1–84) and nECD-PTH1R used in the titration experiments were 7.4 μM, 8.1 μM and 5 μM, respectively. In a typical titration experiment, 4 μM of Zn complex or 9-anthracenemethanol was added and spectra were recorded after each addition. Zn complex or 9-anthracenemethanol in buffer was used as blank titration and these spectral traces were subtracted from the main titration. The Zn complex or 9-anthracenemethanol was dissolved in dimethyl sulfoxide and further diluted for experiments. The final concentration of DMSO was <1% in any experiment.
Fluorescence data were analyzed according to the following equation:
with P = (P0 / (V0 + L))V0 and L1 = (L0 / (V0 + L))L and Q – fluorescence intensity, P – protein concentration, L – ligand concentration, V – volume, n – binding sites and 0 – indicates start point.

HEK 293 cells = experiment: Cell viability, MTT assay; assay type: cell-based, Human; conditions: up to 100 μM, MTT after 3h
Protocol: as §1
Figure S10: (a) cAMP response and (b) cell viability against Zn–perchlorate. Cell viability was tested after 3h using MTT assay.

Row | Compound | suppression of cAMP generation (PTH1R in HEK 293 cells) | change in NMR cross peaks / intensity of PTH(1–84) (PTH(1–84) [1]) | suppression of intracellular cAMP generation ([2]; compound incubated with the peptide PTH(1–84)) | Kd (PTH(1–84) [3]; fluorescence titration against PTH(1–84)) | inhibition of cAMP response ([2]; up to 100 μM) | change in fluorescence intensity (PTH(1–84) [3]; up to 200 μM, PTH(1–84)) | cell toxicity (HEK 293 cells)
1 | OCc1c2ccccc2cc2ccccc12 [9-anthracenemethanol, reference compound] | significant suppression of intracellular cAMP generation was not observed | no residue specific NMR intensity loss | significant suppression of intracellular cAMP generation was not observed | 3.52 ± 0.38 mM |  |  | 
2 | [O-][Cl+3]([O-])([O-])[O-].[O-][Cl+3]([O-])([O-])[O-].[Zn+2] [Zn–perchlorate, reference compound] |  | did not show a significant change in NMR cross peaks |  |  | not observed | did not show any significant change | not observed
